Values of other authors as cited in US6277391A, “Composition and method of treating diseases and disorders of the prostate” (Samyang Corporation, priority 1998, dated 2001).

Conditions: 300 mg PO b.i.d., oral or intravenous, at the end of regimen; 60480 min

Q: With CC1COc2c(N3CCN(C)CC3)c(F)cc3c(=O)c(C(=O)O)cn1c23 (stereo not shown) [ofloxacin] as the molecule, how does the “ofloxacin concentrations in the prostate” value read?
A: The value was 1 to 4 µg/g.
